# Experimental data reported in patent publication US8822439B2, “Glucocorticoid receptor agonists” (Pfizer Inc., priority 2007, dated 2014).
# Tests used:
# [1] = test system: TNF-α release from LPS stimulated isolated human peripheral mononuclear cells (PBMC); assay: Inhibition of TNF-α release from LPS stimulated isolated human PBMC; assay type: cell-based; settings: 1 h preincubation, 18 hours after LPS, ELISA
# Procedure: (§1) The anti-inflammatory activity of the compounds against human leukocytes in vitro was also evaluated by determining inhibition of tumour necrosis factor-α (TNF-α) release from lipopolysaccharide (LPS) stimulated human whole blood (WB) and isolated human peripheral mononuclear cells (PBMC).
# (§2) Peripheral venous blood from healthy, non-medicated donors was collected using ethylenediaminetetraacetic acid (EDTA) as the anti-coagulant. For PBMC preparation, samples of blood were diluted 1:1 with sterile phosphate buffered saline and then separated using ACCUSPIN™ System-Histopaque®-1077 tubes (Sigma-Aldrich, St Louis, Mo.), centrifuged at 400 g for 35 minutes. Buffy coat cells were removed into PBS, centrifuged at 200 g for 10 minutes and re-suspended in PBMC assay buffer (Hanks Balanced Salt Solution, 0.28% [w/v] 4-[2-hydroxyethyl]-1-piperazineethanesulfonic acid [HEPES], 0.01% [w/v] low-endotoxin bovine serum albumin [BSA]. A differential white cell count was performed and PBMC's diluted to 1×10^6 lymphocytes per ml in PBMC assay buffer.
# (§3) Test compounds were dissolved in DMSO and diluted in PBMC assay buffer (final DMSO concentration 1%) to cover an appropriate concentration range, e.g 0.001 nM to 10000 nM. Samples of test compound solution or vehicle (20 μl) were added into 96-well tissue culture treated plates (Corning) and PBMC (160 μl) or WB (160 μl) added to each well. The assay mixtures were incubated at 37° C. for 1 h in a humidified incubator containing an atmosphere of air supplemented with 5% CO2 before adding LPS (20 μl of 100 ng/ml for PBMC or 1 μg/ml for WB). Plates were returned to the incubator for a further 18 hours, and then centrifuged before recovery of samples of supernatant. TNF-α in the samples was determined using an enzyme-linked immunosorbent assay (ELISA) (Invitrogen kit no CHC-1754; Invitrogen Carlsbad, Calif.) and following the manufacturers instructions. Dose response curves were constructed from which IC50 values were calculated.
# [2] = test system: TNF-α release from LPS stimulated human whole blood (WB); assay: Inhibition of TNF-α release from LPS stimulated human whole blood; assay type: cell-based; settings: 1 h preincubation, 18 hours after LPS, ELISA
# Procedure: as §1, §2, §3
# [3] = test system: LPS-induced lung neutrophils; assay: Inhibition of LPS-induced lung neutrophilia in rats after intratracheal dosing; assay type: in vivo; settings: male CD Sprague-Dawley rats; single intratracheal dose 4 hours before nebulised LPS; BAL 4 hours after LPS
# Procedure: The pharmacological activity may be assessed in in vivo models of lung inflammation such as the one described below. The primary objective of this procedure was to determine the anti-inflammatory activity of the compounds of formula (I), when administered directly into the lungs via the trachea.
# Test compounds were dissolved, or prepared as fine suspensions, in phosphate buffered saline containing 0.5% (w/v) Tween-80 to provide a range of dose levels. Male CD Sprague-Dawley rats (300-450 g) were randomised to study groups of n=6 and then briefly anaesthetised in an anaesthetic chamber with 5% Isoflurane in 3 l/min O2. One of the test compound formulations or dose vehicle (100 μl) was injected directly into the trachea of each anaesthetised rat using a Hamilton syringe. The animals were then allowed to recover from the anaesthetic. Dependent on the study design, animals received either a single dose of compound or were treated once daily on 4 successive days. Four hours after the dosing (or 4 hours after the final dose in repeat dose studies) the rats were placed into a chamber (300×300×450 mm), connected to an ultrasonic nebuliser and a small animal rodent ventilator set to the maximum tidal volume and rate (5 ml, 160 strokes/min). 10 ml of 1 mg/ml LPS (Sigma-Aldrich, L2630) dissolved in saline, pre-warmed to 37° C., was nebulised into the chamber. After 15 minutes the ventilator and nebuliser were turned off and the animals remained in the chamber to breathe the mist for a further 15 minutes before being returned to the home cage.
# Four hours after the end of the LPS treatment the animals were terminally anaesthetised with 1 ml/kg Pentoject IP. The trachea was cannulated and the lungs lavaged with 4×2.5 ml PBS containing 2.6 mM EDTA and the lavage fluid collected. 1 ml bronchioalveolar lavage (BAL) was added to 125 μl of 40% bovine serum albumen (BSA) and the cellular count determined using an Advia 120 haematology system (Siemens). In repeat dose studies, bodyweights and weights of adrenal glands and thymus were also determined as these are known to decrease in response to glucocorticoid agonist exposure and have been used to assess the systemic effects of glucocorticoid agonists. In some repeat dose experiments, a terminal blood sample was collected from each rat, serum and plasma prepared, and concentrations of corticosterone in serum and ACTH in plasma were determined as additional markers of systemic glucocorticoid agonist effect. In some studies a known glucocorticoid agonist, fluticasone propionate, was administered to separate groups of rats as a positive control.
# Separate dose response curves were constructed, for inhibition of LPS-induced lung neutrophils, and each marker of glucocorticoid agonist systemic effect. Half maximal effect doses (ED50) values were estimated from the fitted curves. The ED50 values for effect on systemic markers of glucocorticoid agonist activity were also divided by the ED50 for inhibition of lung neutrophilia in order to determine values for therapeutic index (TI).
Structure (SMILES),IC50 [1] [nM],IC50 [2] [nM],ED50 for inhibition of lung neutrophilia [3] [µg]
"C[C@]12C=CC(=O)C=C1[C@@H](F)C[C@H]1[C@@H]3C[C@H]4O[C@@H](c5ccc(Cc6ccccc6)cc5)O[C@@]4(C(=O)CO)[C@@]3(C)C[C@H](O)[C@@]12F [Example 1, (4aS,4bR,5S,6aS,6bS,8R,9aR,10aS,10bS,12S)-8-(4-Benzylphenyl)-4b,12-difluoro-6b-glycoloyl-5-hydroxy-4a,6a-dimethyl-4a,4b,5,6,6a,6b,9a,10,10a,10b,11,12-dodecahydro-2H-naphtho[2′,1′:4,5]indeno[1,2-d][1,3]dioxol-2-one]",0.098,17,0.27
"CSc1cccc(Sc2ccc([C@@H]3O[C@@H]4C[C@H]5[C@@H]6C[C@H](F)C7=CC(=O)C=C[C@]7(C)[C@@]6(F)[C@@H](O)C[C@]5(C)[C@]4(C(=O)CO)O3)cc2)c1 [Example 2, (4aS,4bR,5S,6aS,6bS,8R,9aR,10aS,10bS,12S)-4b,12-difluoro-6b-glycoloyl-5-hydroxy-4a 0.6a-dimethyl-8-(4-{[3-(methylthio)phenyl]thio}phenyl)-4a,4b,5,6,6a,6b,9a,10,10a,10b,11.,12-dodecahydro-2H-naphtho[2′,1′:4,5]indeno[1,2-d][1,3]dioxol-2-one]",0.092,49,0.18
"C[C@]12C=CC(=O)C=C1[C@@H](F)C[C@H]1[C@@H]3C[C@H]4O[C@@H](c5ccc(CSc6ccc(O)cc6)cc5)O[C@@]4(C(=O)CO)[C@@]3(C)C[C@H](O)[C@@]12F [Example 3, (4aS,4bR,5S,6aS,6bS,8R,9aR,10aS,10bS,12S)-4b,12-Difluoro-6b-glycoloyl-5-hydroxy-8-(4-{[(4-hydroxyphenyl)thio]methyl}phenyl)-4a 0.6a-dimethyl-4a,4b,5,6,6a,6b,9a,10,10a,10b,11,12-dodecahydro-2H-naphtho[2′,1′:4,5]indeno[1,2-d][1,3]dioxol-2-one]",0.061,24,0.45
"C[S+]([O-])c1cccc(Sc2ccc([C@@H]3O[C@@H]4C[C@H]5[C@@H]6C[C@H](F)C7=CC(=O)C=C[C@]7(C)[C@@]6(F)[C@@H](O)C[C@]5(C)[C@]4(C(=O)CO)O3)cc2)c1 (stereo partly drawn) [Example 4, (4aS,4bR,5S,6aS,6bS,8R,9aR,10aS,10bS,12S)-4b,12-difluoro-6b-glycoloyl-5-hydroxy-4a,6a-dimethyl-8-(4-{[3-(methylsulfinyl)phenyl]thio}phenyl)-4a,4b,5,6,6a,6b,9a,10,10a,10b,11,12-dodecahydro-2H-naphtho[2′,1′:4.5]indeno[1,2-d][1,3]dioxol-2-one]",0.059,40,2.00
"C[C@]12C=CC(=O)C=C1[C@@H](F)C[C@H]1[C@@H]3C[C@H]4O[C@@H](c5ccc(CSc6ccc(O)c(Cl)c6)cc5)O[C@@]4(C(=O)CO)[C@@]3(C)C[C@H](O)[C@@]12F [Example 5, (4aS,4bR,5S,6aS,6bS,8R,9aR,10aS,10bS,12S)-8-(4-{[(3-chloro-4-hydroxyphenyl)thio]methyl}phenyl)-4-b,12-difluoro-6b-glycoloyl-5-hydroxy-4a,6a-dimethyl-4a,4b,5,6,6a,6b,9a,10,10a,10b. 11,12-dodecahydro-2H-naphtho[2′,1′:4.5]indeno[1,2-d][1,3]dioxol-2-one]",0.032,8.73,3.6
